# Experimental data reported in PMC7006954 (Journal of medicinal chemistry, 2016).
# Like-named read-outs stand apart in the source and are kept apart here.
# Assays:
# [1] = biological target: T1, human CD4 (CD4-YFP) expression in CHO•CD4-YFP cells (Homo sapiens, UniProt P01730); settings: read-out: IC50 (CD4 down-modulation); cited from earlier work
# [2] = biological target: T1, human CD4 (CD4-YFP) expression in CHO•CD4-YFP cells; experiment: CD4 down-modulation in CHO cells stably expressing CD4-YFP; format: cell-based; settings: for DC50: read-out: IC50 CD4 (μM) mean ± SD, 50% down-modulation of CD4 expression, 24 h drug treatment
# [3] = stably CD4-YFP transfected CHO cells, n = 3, cyclohexylmethyl-tailed compounds
# [4] = CD4-YFP transfected CHO cells, n ≥ 3, benzyl-tailed compounds
SMILES,"DC50 [2, 4]",further results
"C=C1CN(S(=O)(=O)c2ccc(C)cc2)CCCN(Cc2ccccc2)CCCN(S(=O)(=O)c2ccc(C)cc2)C1 [CADA, Cyclotriazadisulfonamide]",,IC50 [1]: 400 nM
"C=C1CN(S(=O)(=O)c2ccc(C)cc2)CCCN(CC2CCCCC2)CCCN(S(=O)(=O)c2ccc(OC)cc2)C1 [Compound 1, reference compound]",,"DC50 [2, 3]: 0.15 ± 0.01 µM"
"C=C1CN(S(=O)(=O)c2ccccc2)CCCN(Cc2ccccc2)CCCN(S(=O)(=O)c2ccc(C)cc2)C1 [Compound 25, 1-(benzenesulfonyl)-9-benzyl-3-methylene-5-(p-toluenesulfonyl)-1,5,9-triazacyclododecane]",1.46 ± 0.05 µM,
C=C1CN(S(=O)(=O)c2ccc(C)cc2)CCCN(Cc2ccccc2)CCCN(S(=O)(=O)c2ccc3ccccc3c2)C1 [Compound 26],0.55 ± 0.17 µM,
C=C1CN(S(=O)(=O)c2ccc(C)cc2)CCCN(Cc2ccccc2)CCCN(S(=O)(=O)c2ccc([N+](=O)[O-])cc2)C1 [Compound 27],5.25 ± 1.1 µM,
C=C1CN(S(=O)(=O)c2ccc(C)cc2)CCCN(Cc2ccccc2)CCCN(S(=O)(=O)c2ccc(OC(F)(F)F)cc2)C1 [Compound 29],1.2 ± 0.01 µM,
C=C1CN(S(=O)(=O)c2ccc(C)cc2)CCCN(Cc2ccccc2)CCCN(S(=O)(=O)c2ccc(OC)c(OC)c2)C1 [Compound 31],0.31 ± 0.06 µM,
C=C1CN(S(=O)(=O)c2ccc(C)cc2)CCCN(Cc2ccccc2)CCCN(S(=O)(=O)c2ccc3c(c2)OCO3)C1 [Compound 33],1.06 ± 0.12 µM,
C=C1CN(S(=O)(=O)c2ccc(C)cc2)CCCN(Cc2ccccc2)CCCN(S(=O)(=O)c2cccc([N+](=O)[O-])c2)C1 [Compound 34],2.02 ± 0.29 µM,
C=C1CN(S(=O)(=O)c2ccc(C)cc2)CCCN(Cc2ccccc2)CCCN(S(=O)(=O)N(C)C)C1 [Compound 35],1.58 ± 0.2 µM,
C=C1CN(S(=O)(=O)c2ccc(C)cc2)CCCN(Cc2ccccc2)CCCN(S(=O)(=O)c2ccn(C)c2)C1 [Compound 36],3.17 ± 0.64 µM,
C=C1CN(S(=O)(=O)c2ccc(C)cc2)CCCN(Cc2ccccc2)CCCN(S(=O)(=O)c2ccc(F)cc2)C1 [Compound 37],0.92 ± 0.11 µM,
C=C1CN(S(=O)(=O)c2ccc(C)cc2)CCCN(Cc2ccccc2)CCCN(S(=O)(=O)c2cccc(N(C)C)c2)C1 [Compound 38],0.79 ± 0.1 µM,
"C=C1CN(S(=O)(=O)c2ccc(C)cc2)CCCN(CC2CCCCC2)CCCN(S(=O)(=O)c2ccc(OCCCC)cc2)C1 [Compound 39, 1-(p-Butoxybenzenesulfonyl)-9-cyclohexylmethyl-3-methylene-5-(p-toluenesulfonyl)-1,5,9-triazacyclododecane]",,"DC50 [2, 3]: 1.1 ± 0.13 µM"
"C=C1CN(S(=O)(=O)c2ccc(C)cc2)CCCN(CC2CCCCC2)CCCN(S(=O)(=O)c2ccc(N(C)C)cc2)C1 [Compound 40, 9-Cyclohexylmethyl-1-(p-(dimethylamino)benzenesulfonyl)-3-methylene-5-(p-toluenesulfonyl)-1,5,9-triazacyclododecane]",,"DC50 [2, 3]: 0.063 ± 0.005 µM"
"C=C1CN(S(=O)(=O)c2ccc(C)cc2)CCCN(Cc2ccccc2)CCCN(S(=O)(=O)c2ccc(SC)cc2)C1 [Compound 41, 9-Benzyl-3-methylene-1-(p-thiomethoxybenzenesulfonyl)-5-(p-toluenesulfonyl)-1,5,9-triazacyclododecane]",0.23 ± 0.05 µM,

SMILES,"DC50 [2, 4]",further results
C=C1CN(S(=O)(=O)c2ccc(C)cc2)CCCN(Cc2ccccc2)CCCN(S(=O)(=O)c2cccc(N)c2)C1 [Compound 44],1.02 ± 0.09 µM,
C=C1CN(S(=O)(=O)c2ccc(C)cc2)CCCN(Cc2ccccc2)CCCN(S(=O)(=O)c2ccc(N)cc2)C1 [Compound 45],2.42 ± 0.42 µM,
C=C1CN(S(=O)(=O)c2ccc(C)cc2)CCCN(CC2CCCCC2)CCCN(S(=O)(=O)c2ccc(N)cc2)C1 [Compound 46],,"DC50 [2, 3]: 1 ± 0.15 µM"
C=C1CN(S(=O)(=O)c2ccc(C)cc2)CCCN(CC2CCCCC2)CCCN(S(=O)(=O)c2ccc(-n3cccc3)cc2)C1 [Compound 47],,"DC50 [2, 3]: 0.18 ± 0.01 µM"
C=C1CN(S(=O)(=O)c2ccc(C)cc2)CCCN(CC2CCCCC2)CCCN(S(=O)(=O)c2ccc(N3CCOCC3)cc2)C1 [Compound 48],,"DC50 [2, 3]: 0.13 ± 0.01 µM"
"C=C1CNCCCN(Cc2ccccc2)CCCN(S(=O)(=O)c2ccc(C)cc2)C1 [Compound 49, 9-Benzyl-3-methylene-1-(p-toluenesulfonyl)-1,5,9-triazacyclododecane]",> 50 µM,
"C=C1CN(S(=O)(=O)c2ccc(C)cc2)CCCN(CC2CCCCC2)CCCN(S(=O)(=O)c2ccc(O)cc2)C1 [Compound 51, 9-Cyclohexylmethyl-1-(p-hydroxybenzenesulfonyl)-3-methylene-5-(p-toluenesulfonyl)-1,5,9-triazacyclododecane]",,"DC50 [2, 3]: 1.14 ± 0.02 µM"
C=C1CN(S(=O)(=O)c2ccc(C)cc2)CCCN(CC2CCCCC2)CCCN(S(=O)(=O)c2ccc(OCC)cc2)C1 [Compound 52],,"DC50 [2, 3]: 0.19 ± 0.01 µM"
C=C1CN(S(=O)(=O)c2ccc(C)cc2)CCCN(CC2CCCCC2)CCCN(S(=O)(=O)c2ccc(OCCCN3C(=O)c4ccccc4C3=O)cc2)C1 [Compound 53],,"DC50 [2, 3]: 0.75 ± 0.06 µM"
C=C1CN(S(=O)(=O)c2ccc(C)cc2)CCCN(CC2CCCCC2)CCCN(S(=O)(=O)c2ccc(OCCCN)cc2)C1 [Compound 54],,"DC50 [2, 3]: > 50 µM"
C=C1CN(S(=O)(=O)c2ccc(C)cc2)CCCN(Cc2ccccc2)CCCN(S(=O)(=O)c2ccc(O)cc2)C1 [Compound 55],3.58 ± 0.54 µM,
C#CCOc1ccc(S(=O)(=O)N2CCCN(Cc3ccccc3)CCCN(S(=O)(=O)c3ccc(C)cc3)CC(=C)C2)cc1 [Compound 56],0.46 ± 0.07 µM,
C=C1CN(C(=O)c2ccc(C)cc2)CCCN(Cc2ccccc2)CCCN(S(=O)(=O)c2ccc(C)cc2)C1 [Compound 59],3.78 ± 2.38 µM,
C=C1CN(C(=O)c2ccccc2)CCCN(Cc2ccccc2)CCCN(S(=O)(=O)c2ccc(C)cc2)C1 [Compound 61],7.32 ± 1.7 µM,
C=C1CN(C(=O)c2ccc(N)cc2)CCCN(Cc2ccccc2)CCCN(S(=O)(=O)c2ccc(C)cc2)C1.Cl [Compound 62],> 50 µM,"percentage CD4 down-modulation measured at highest (50 μM) compound concentration ([2]; 50 μM compound, CD4-YFP transfected CHO cells, 24 h): 15%"
C=C1CN(S(=O)(=O)c2ccc(C)cc2)CCCN(Cc2ccccc2)CCCN(S(=O)(=O)N2CCOCC2)C1 [Compound 63],1.08 ± 0.1 µM,

# The next lines start with results.
"DC50 [2, 4]",SMILES,further results
0.7 ± 0.09 µM,C=C1CN(S(=O)(=O)c2ccc(C)cc2)CCCN(Cc2ccccc2)CCCN(S(=O)(=O)c2ccccc2[N+](=O)[O-])C1 [Compound 28],
1.35 ± 0.3 µM,C=C1CN(S(=O)(=O)c2ccc(C)cc2)CCCN(Cc2ccccc2)CCCN(S(=O)(=O)c2ccc(OC)cc2OC)C1 [Compound 30],
0.17 ± 0.08 µM,C=C1CN(S(=O)(=O)c2ccc(C)cc2)CCCN(Cc2ccccc2)CCCN(S(=O)(=O)c2ccc(N(C)C)cc2)C1 [Compound 32],
2.12 ± 0.39 µM,C=C1CN(S(=O)(=O)c2ccc(C)cc2)CCCN(Cc2ccccc2)CCCN(S(=O)(=O)c2ccccc2N)C1 [Compound 43],
0.29 ± 0.09 µM,"C=C1CN(S(=O)(=O)c2ccc(C)cc2)CCCN(Cc2ccccc2)CCCN(S(=O)(=O)c2ccc(OC)cc2)C1 [Compound 50, reference compound]",
6.28 ± 2.04 µM,C=C1CN(S(=O)(=O)c2ccc(C)cc2)CCCN(Cc2ccccc2)CCCN(S(=O)(=O)c2ccc(OC(=S)N(C)C)cc2)C1 [Compound 57],
4.22 ± 0.84 µM,"C=C1CN(C(=O)c2ccc(OC)cc2)CCCN(Cc2ccccc2)CCCN(S(=O)(=O)c2ccc(C)cc2)C1 [Compound 58, 9-benzyl-3-methylene-5-(p-methoxybenzoyl)-1-(p-toluenesulfonyl)-1,5,9-triazacyclododecane]",
> 50 µM,C=C1CN(C(=O)c2ccc([N+](=O)[O-])cc2)CCCN(Cc2ccccc2)CCCN(S(=O)(=O)c2ccc(C)cc2)C1 [Compound 60],
